In patent publication US8008525B2, “Receptor function regulating agent” (Takeda Pharmaceutical Company Limited, priority 2003, dated 2011):

Molecular target: T1, human 14273 receptor (Homo sapiens, UniProt Q5NUL3)
T1 construct: expressed in transfected cells
T1 sequence (Q5NUL3 1-361): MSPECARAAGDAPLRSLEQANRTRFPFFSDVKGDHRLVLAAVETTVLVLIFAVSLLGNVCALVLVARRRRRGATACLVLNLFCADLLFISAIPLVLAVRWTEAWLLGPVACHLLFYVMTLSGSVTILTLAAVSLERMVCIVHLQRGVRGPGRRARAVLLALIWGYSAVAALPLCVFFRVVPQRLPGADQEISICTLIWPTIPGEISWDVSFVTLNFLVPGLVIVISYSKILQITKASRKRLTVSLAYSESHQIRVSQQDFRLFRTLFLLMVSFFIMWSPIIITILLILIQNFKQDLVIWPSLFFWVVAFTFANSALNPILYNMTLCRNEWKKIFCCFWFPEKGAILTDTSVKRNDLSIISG
Assay: Test Example 1: regulating effect for 14273 receptor function (agonist effect), change in intracellular calcium level by FLIPR
Assay type: cell-based
Conditions: CHO cell line (No. 104) expressing human 14273 receptor, change of fluorescent intensity after 35 seconds
Procedure: CHO cell lines (No. 104) in which a human 14273 receptor has expressed was diluted to contain 3×10^4/100 μl cells, and dispensed in Black walled 96-well plate (Costar) at a density of 100 μl/well, followed by culturing overnight in a CO2 incubator. A change in intracellular calcium level was measured using FLIPR (Molecular Device). The method is described as below. 50 μg of Fluo-3AM (DOJIN) was dissolved in 21 μl of DMSO (DOJIN) and an equal volume of 20% pluronic acid (Molecular Probes) was added thereto, followed by mixing them. The mixture was added to 10.6 ml of the assay buffer [which is prepared by adding 10 ml of a solution, which is prepared by adding 20 ml of 1 M HEPES (pH 7.4, DOJIN) to 1 L of HBSS (Invitrogen), dissolving 710 mg of probenecid (Sigma) in 5 ml of 1 N NaOH, and further adding 5 ml of the above-mentioned HBSS/HEPES solution and mixing it.] supplemented with 105 μl of fetal bovine serum to prepare a fluorescent dye solution. The medium of the cell plate was removed, the fluorescent dye solution was dispensed in 100 μl each per well. The culturing was performed in a CO2 incubator for 1 hour to incorporate the fluorescent dye into the cells. The cells after culturing were washed with the assay buffer. The compounds to be added to the cells were diluted to each concentration with a buffer solution to which CHAPS (DOJIN) was added in 0.015%, and dispensed in a plate for the test sample. Following the pretreatment above, a change in intracellular calcium level after addition of the compound was determined with FLIPR to investigate the agonist effect. An EC50 value was calculated from dose-reaction curve using the change of fluorescent intensity after 35 seconds from the reaction initiation.

Row | EC50 [µM] | SMILES
1 | ≤ 10 | O=C(O)CCc1cc(F)c(OCc2cccc(Oc3ccccc3)c2)c(F)c1 [Example 2, 3,5-Difluoro-4-[(3-phenoxyphenyl)methoxy]benzenepropanoic acid]
2 | ≤ 10 | O=C(O)CCc1ccc(OCc2cccc(Oc3ccccc3)c2)c(Cl)c1 [Example 4, 3-Chloro-4-[(3-phenoxyphenyl)methoxy]benzenepropanoic acid]
3 | ≤ 10 | COc1cccc(COc2c(F)cc(CCC(=O)O)cc2F)c1 [Example 6, 3,5-Difluoro-4-[(3-methoxyphenyl)methoxy]benzenepropanoic acid]
4 | ≤ 10 | CCOc1cccc(COc2c(F)cc(CCC(=O)O)cc2F)c1 [Example 8, 4-[(3-Ethoxyphenyl)methoxy]-3,5-difluorobenzenepropanoic acid]
5 | ≤ 10 | CC(C)Oc1cccc(COc2c(F)cc(CCC(=O)O)cc2F)c1 [Example 10]
6 | ≤ 10 | O=C(O)CCc1ccc(OCc2cccc(Oc3ccccc3)c2)c(F)c1 [Example 12, 3-Fluoro-4-[(3-phenoxyphenyl)methoxy]benzenepropanoic acid]
7 | ≤ 10 | O=C(O)CCc1cc(F)c(OCc2ccccc2Oc2ccccc2)c(F)c1 [Example 16, 3,5-Difluoro-4-[(2-phenoxyphenyl)methoxy]benzenepropanoic acid]
8 | ≤ 10 | O=C(O)CCc1ccc(OCc2ccccc2Oc2ccccc2)c(F)c1 [Example 18, 3-Fluoro-4-[(2-phenoxyphenyl)methoxy]benzenepropanoic acid]
9 | ≤ 10 | O=C(O)CCc1cc(F)c(OCc2ccccc2-c2ccccc2)c(F)c1 [Example 20, 4-([1,1′-Biphenyl]-2-ylmethoxy)-3,5-difluorobenzenepropanoic acid]
10 | ≤ 10 | O=C(O)CCc1ccc(OCc2ccccc2-c2ccccc2)c(F)c1 [Example 22, 4-([1,1′-Biphenyl]-2-ylmethoxy)-3-fluorobenzenepropanoic acid]
11 | ≤ 10 | O=C(O)CCc1ccc(OCc2ccccc2-c2ccccc2)c(Cl)c1 [Example 24, 4-([1,1′-Biphenyl]-2-ylmethoxy)-3-chlorobenzenepropanoic acid]
12 | ≤ 10 | O=C(O)CCc1cc(F)c(OCc2ccccc2OC2CCCC2)c(F)c1 [Example 28, 3-(4-{[2-(cyclopentyloxy)benzyl]oxy}-3,5-difluorophenyl)propanoic acid]
13 | ≤ 10 | CC(C)Oc1ccccc1COc1c(F)cc(CCC(=O)O)cc1F [Example 34, 3-{3,5-difluoro-4-[(2-isopropoxybenzyl)oxy]phenyl}propanoic acid]
14 | ≤ 10 | O=C(O)CCc1cc(F)c(OCc2ccccc2OC2CCCCC2)c(F)c1 [Example 36, 3-(4-{[2-(cyclohexyloxy)benzyl]oxy}-3,5-difluorophenyl)propanoic acid]
15 | ≤ 10 | Cc1ccccc1COc1c(F)cc(CCC(=O)O)cc1F [Example 42, 3-{3,5-difluoro-4-[(2-methylbenzyl)oxy]phenyl}propanoic acid]
16 | ≤ 10 | O=C(O)CCc1cc(F)c(OCc2ccccc2N2CCCCC2)c(F)c1 [Example 44, 3-{3,5-difluoro-4-[(2-piperidin-1-ylbenzyl)oxy]phenyl}propanoic acid]
17 | ≤ 10 | COc1ccc(Oc2cccc(COc3c(F)cc(CCC(=O)O)cc3F)c2)cc1 [Example 46, 3-(3,5-difluoro-4-{[3-(4-methoxyphenoxy)benzyl]oxy}phenyl)propanoic acid]
18 | ≤ 10 | O=C(O)CCc1cc(F)c(OCc2cccc(Oc3ccc(Cl)cc3)c2)c(F)c1 [Example 48, 3-(4-{[3-(4-chlorophenoxy)benzyl]oxy}-3,5-difluorophenyl)propanoic acid]
19 | ≤ 10 | O=C(O)CCc1cc(F)c(OCc2cccc(OC3CCCCC3)c2)c(F)c1 [Example 52, 3-(4-{[3-(cyclohexyloxy)benzyl]oxy}-3,5-difluorophenyl)propanoic acid]
20 | ≤ 10 | O=C(O)CCc1cc(F)c(OCc2cccc(Oc3ccc(F)cc3)c2)c(F)c1 [Example 54, 3-(3,5-difluoro-4-{[3-(4-fluorophenoxy)benzyl]oxy}phenyl)propanoic acid]

Row | EC50 [µM] | SMILES
21 | ≤ 10 | Cc1ccc(Oc2cccc(COc3c(F)cc(CCC(=O)O)cc3F)c2)cc1 [Example 56, 3-(3,5-difluoro-4-{[3-(4-methylphenoxy)benzyl]oxy}phenyl)propanoic acid]
22 | ≤ 10 | O=C(O)CCc1cc(F)c(OCc2cccc(OC3CCCC3)c2)c(F)c1 [Example 58, 3-(4-{[3-(cyclopentyloxy)benzyl]oxy}-3,5-difluorophenyl)propanoic acid]
23 | ≤ 10 | O=C(O)CCc1cc(F)c(OCc2cccc(Oc3ccccn3)c2)c(F)c1 [Example 60, 3-(3,5-difluoro-4-{[3-(pyridin-2-yloxy)benzyl]oxy}phenyl)propanoic acid]
24 | ≤ 10 | O=C(O)CCc1cc(F)c(OCc2cccc(Oc3ccsc3)c2)c(F)c1 [Example 62, 3-(3,5-difluoro-4-{[3-(3-thienyloxy)benzyl]oxy}phenyl)propanoic acid]
25 | ≤ 10 | O=C(O)CCc1cc(F)c(OCc2cccc(Oc3cccs3)c2)c(F)c1 [Example 64, 3-(3,5-difluoro-4-{[3-(2-thienyloxy)benzyl]oxy}phenyl)propanoic acid]
26 | ≤ 10 | O=C(O)CCc1cc(F)c(OCc2cccc(Oc3nccs3)c2)c(F)c1 [Example 68, 3-(3,5-difluoro-4-{[3-(1,3-thiazol-2-yloxy)benzyl]oxy}phenyl)propanoic acid]
27 | ≤ 10 | COc1cc(COc2ccc(CCC(=O)O)cc2F)cc(OC)c1 [Example 94, 3-{4-[(3,5-dimethoxybenzyl)oxy]-3-fluorophenyl}propanoic acid]
28 | ≤ 10 | CCOc1cc(COc2ccc(CCC(=O)O)cc2F)cc(OCC)c1 [Example 96, 3-{4-[(3,5-diethoxybenzyl)oxy]-3-fluorophenyl}propanoic acid]
29 | ≤ 10 | O=C(O)CCc1ccc(OCc2cccc3c2OCO3)c(F)c1 [Example 102, 3-[4-(1,3-benzodioxol-4-ylmethoxy)-3-fluorophenyl]propanoic acid]
30 | ≤ 10 | O=C(O)CCc1ccc(OCc2cc(O)cc(Oc3ccccc3)c2)c(F)c1 [Example 118, 3-{3-fluoro-4-[(3-hydroxy-5-phenoxybenzyl)oxy]phenyl}propanoic acid]
31 | ≤ 10 | CC(C)Oc1cc(COc2ccc(CCC(=O)O)cc2F)cc(Oc2ccccc2)c1 [Example 124, 3-{3-fluoro-4-[(3-isopropoxy-5-phenoxybenzyl)oxy]phenyl}propanoic acid]
32 | ≤ 10 | O=C(O)CCc1ccc(OCc2cccc(Oc3ccc(Cl)cc3)c2)c(F)c1 [Example 163, 3-(3-fluoro-4-{[3-(4-chlorophenoxy)benzyl]oxy}phenyl)propanoic acid]
33 | ≤ 10 | Cc1cccc(Oc2cccc(COc3ccc(CCC(=O)O)cc3F)c2)c1 [Example 169, 3-(3-fluoro-4-{[3-(3-methylphenoxy)benzyl]oxy}phenyl)propanoic acid]
34 | ≤ 10 | Cc1ccc(Oc2cccc(COc3ccc(CCC(=O)O)cc3F)c2)cc1 [Example 171, 3-(3-fluoro-4-{[3-(4-methylphenoxy)benzyl]oxy}phenyl)propanoic acid]
35 | ≤ 10 | Cc1cc(CCC(=O)O)ccc1OCc1cccc(Oc2ccccc2)c1 [Example 173, 3-(3-methyl-4-[(3-phenoxybenzyl)oxy]phenyl)propanoic acid]
36 | ≤ 10 | Cc1cc(CCC(=O)O)ccc1OCc1cccc(OC(C)C)c1 [Example 178, 3-{4-[(3-isopropoxybenzyl)oxy]-3-methylphenyl}propanoic acid]
37 | ≤ 10 | CCOc1cccc(COc2ccc(CCC(=O)O)cc2C)c1 [Example 180, 3-{4-[(3-ethoxybenzyl)oxy]-3-methylphenyl}propanoic acid]
38 | ≤ 10 | CCOc1cccc(COc2ccc(CCC(=O)O)cc2F)c1 [Example 188, 3-{4-[(3-ethoxybenzyl)oxy]-3-fluorophenyl}propanoic acid]
39 | ≤ 10 | CCOc1cccc(COc2ccc(CCC(=O)O)cc2F)c1C [Example 208, 3-{4-[(3-ethoxy-2-methylbenzyl)oxy]-3-fluorophenyl}propanoic acid]

Row | SMILES | EC50 [µM]
40 | CC(C)COc1ccccc1COc1c(F)cc(CCC(=O)O)cc1F [Example 32, 3-{3,5-difluoro-4-[(2-isobutoxybenzyl)oxy]phenyl}propanoic acid] | ≤ 10
41 | CC(C)COc1cccc(COc2c(F)cc(CCC(=O)O)cc2F)c1 [Example 135, 3-{3,5-difluoro-4-[(3-isobutoxybenzyl)oxy]phenyl}propanoic acid] | ≤ 10
